{"source": "patent US8426644B2", "about": "“Compositions and methods for inhibiting an isoform of human manganese superoxide dismutase” (MitoTek, LLC, priority 2005, dated 2013)", "key": {"isoMnSOD [1]": {"target": "T1, isoMnSOD (Mus musculus, UniProt P09671, DEL77-115)", "T1 construct": "Mitochondrial pellets were lysed in 1% CHAPS detergent; from tissue; host or cells: mouse cerebellum mitochondria", "T1 sequence (P09671 with tags, fused parts or gaps DEL77-115)": "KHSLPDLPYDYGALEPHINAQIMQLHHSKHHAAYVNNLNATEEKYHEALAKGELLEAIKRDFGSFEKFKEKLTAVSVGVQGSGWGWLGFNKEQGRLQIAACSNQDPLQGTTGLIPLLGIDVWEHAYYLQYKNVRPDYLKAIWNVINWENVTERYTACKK", "test": "isoMnSOD peroxidative activity, cerebellum mitochondrial extracts on nitrocellulose strips (Example 20)", "format": "biochemical", "details": "1 μM of compound, 30 min at room temperature; cerebellum of 4 week mice; 1 mM hydrogen peroxide, luminol; FIG. 7", "procedure": "Protein extracts containing isoMnSOD were prepared from cerebellum from 4 week mice by first forming a liquid nitrogen powder, resuspended with five volumes of ice-cold lysis buffer (in mM: 20 HEPES-KOH, pH 7.5, 10 KCl, 1.5 MgCl2, 1 DTT, 1 EDTA, 1 EGTA, and 0.1 PMSF) containing 70 mM mannitol and 250 mM sucrose and homogenizing with a Dounce homogenizer. Extract was centrifuged at 750 g for 10 min at 4° C. and the supernatant was then centrifuged at 10,000 g for 15 min at 4° C. to pellet the mitochondrial pellet, which was then stored frozen. Mitochondrial pellets were lysed in 1% CHAPS detergent containing 50 mM Tris-Cl, pH 8.0, 500 mM NaCl and then loaded onto a native 5% polyacrylamide gel. Protein concentration was measured by using the Bradford protein assay kit. After transfer to nitrocellulose, nitrocellulose strips were incubated with 1 μM of compound in 50 mM Tris-HCl, 50 mM NaCl, 5 mM EDTA, pH 8.0 for 30 min at room temperature, then washed extensively with incubation buffer alone. The peroxidative activity of isoMnSOD was measured using 100 of Femtomole luminol (Pierce) containing 1 mM hydrogen peroxide per nitrocellulose strip and exposed to x-ray film."}, "[2]": {"system": "PC12 neuroendocrine cell line", "test": "Hydrogen peroxide-mediated cell death, Live/Dead assay (Example 21)", "format": "cell-based", "details": "PC12 preincubated with 4 μM for 1 hr, then 1 mM hydrogen peroxide, 20 hrs; FIG. 8", "procedure": "Neuroendocrine cell line, PC12, was cultured in DMEM medium containing 10% FBS on plates treated with collagen. Freshly passed cells (1×10(7) cells) were preincubated with 4 μM 2-(3,4-dihydroxy-phenyl)-N-heptadec-8-enyl-acetamide (IV), 2-(2,5-dihydroxy-phenyl)-N-heptadec-8-enyl-acetamide (V) (containing about 30% impurity), or other compound for 1 hr and then treated with 1 mM hydrogen peroxide. After 20 hrs, cultures were examined by the Live/Dead assay (Molecular Probes)."}, "[3]": {"system": "AMP kinase phosphorylation at Thr172", "test": "Doxorubicin-induced activation of AMP kinase in heart explants, western immunoblot (Example 22)", "format": "cell-based", "details": "rat heart explants, 1 mM doxorubicin and 4 μM compound overnight; FIG. 9 Lane 3", "procedure": "Hearts from 4 week rats were excised and minced without trypsin in 50:50 medium M199:MCDB 10% FBA containing 5 mM Creatine, 2 mM L-carnitine and 5 mM taurine. Explants were incubated overnight at 37° C. in a 5% CO2 incubator untreated (Lane 1), with 1 mM doxorubicin (Lane 2), and with 1 mM doxorubicin and 4 μM 2-(3,4-dihydroxy-phenyl)-N-heptadec-8-enyl-acetamide (IV) (Lane 3). Explants were frozen at −70° C., liquid nitrogen powders were prepared and lysed and denatured in 2% SDS with 5% BME with boiling for 5 min. Protein extracts were examined by western immunoblotting using a rabbit monoclonal recognizing Phospho-AMP Kinase-α (Thr172) (CellSignal).\nThe AMP kinase was activated by an elevated AMP(high)/ATP(low) ratio due to cellular and environmental stress, such as heat shock, hypoxia and ischemia. Elevated AMP/ATP ratio and activation of AMPK by phosphorylation at Thr172 can also occur by uncoupling mitochondrial oxidative phosphorylation from respiration with oligomycin and thereby loss of mitochondrial ATP synthesis."}, "Rats": {"system": "Rats", "test": "Doxorubicin-induced heart failure in rats (Example 23)", "format": "in vivo, rat", "details": "IP 10 mg/kg doxorubicin, FIG. 10", "procedure": "Rats were treated with IP injections of 10 mg/kg doxorubicin. Left Ventricular Developed Pressure (LVDP): Systolic Pressure-Diastolic Pressure, which is an indicator of ventricular systolic function; dP/dtmax: Maximal rate of pressure development, which is an indicator of ventricular systolic function; dP/dtmin Minimal rate of pressure development, which is an indicator of ventricular diastolic function."}, "isoMnSOD [4]": {"target": "T2, isoMnSOD (Rattus norvegicus, UniProt P07895, DEL77-115)", "T2 construct": "Cerebella explants from one 4 week rat, strain WKY; from tissue; host or cells: rat (WKY) cerebellum explants", "T2 sequence (P07895 with tags, fused parts or gaps DEL77-115)": "T1 sequence (P09671 with tags, fused parts or gaps DEL77-115) with A33T, A40V, T151S, E152Q, T155I, A156V", "test": "Immunodetection of isoMnSOD in treated cerebella explants (Example 24)", "format": "cell-based", "details": "cerebella explants of 4 week rat, one hour at 37° C., 5 μM OA-diHPAc; western immunoblot", "procedure": "Immuno detection of isoMnSOD and measurement of isoMnSOD (a) and measurement of caspase 9 cleavage (b) in cerebella explants from 4 week old rat cerebellum and treated with 2-(3,4-dihydroxy-phenyl)-N-heptadec-8-enyl-acetamide (IV). Cerebella explants from one 4 week rat, strain WKY, were incubated in aerated 4 mL of M199:MCDB 10% FBS and incubated one hour at 37° C. in a roller bottle for maximum oxygenation, with or without 5 μM OA-diHPAc. Explants were harvested, quick frozen, and then lysed in boiling SDS and 5% BME and protein extracts were separated in a 4-12% polyacrylamide gel (Novex) and examined by western immunoblot. […] The peptide sequence used as the antigen to form the MnSOD E2/E4 antibody is at the active site of isoMnSOD and modification of isoMnSOD by 2-(3,4-dihydroxy-phenyl)-N-heptadec-8-enyl-acetamide (IV) appears to block epitope recognition. RT/PCR analysis of the MnSOD mRNAs confirmed that the mRNA encoding isoMnSOD is present in treated explants."}}, "note": "Positions count from the first letter of the chain named.", "data": [{"smiles": "CCCCCCCC/C=C\\CCCCCCCNC(=O)Cc1ccc(O)c(O)c1", "note": "[2-(3,4-dihydroxy-phenyl)-N-heptadec-8-enyl-acetamide]", "values": [{"measurement": "Inhibition", "setting": "isoMnSOD [1]", "value": "yes"}, {"measurement": "Protection of hydrogen peroxide-mediated cell death", "setting": "[2]", "value": "Protection"}, {"measurement": "suppression of doxorubicin-induced AMP kinase activation", "setting": "[3]", "value": "suppresses this activation"}, {"measurement": "cardio protection of doxorubicin-induced heart failure (LVDP, dP/dtmax, dP/dtmin)", "setting": "Rats", "value": "exerts cardio protection"}, {"measurement": "antigenicity of isoMnSOD with MnSOD E2/E4 peptide antibody and MnSOD antibody", "setting": "isoMnSOD [4]", "value": "loss of antigenicity with the MnSOD E21E4 peptide antibody but not with the MnSOD antibody"}]}]}
